The values below come from patent publication US12642781B2, “Adenomyosis associated infertility and hdac inhibitors” (NADEZHDA REPRODUCTIVE SCIENCE OOD, priority 2020, dated 2026).

Each structure is given as a SMILES string.

The test system of data set [1] is adenomyosis associated infertility. In words: Pregnancy outcome of IVF after the treatment regimen. It counts as in vivo, women. As to the method: Sodium valproate 500 mg prolonged-release tablets were used. […] There were tested 37 women with adenomyosis and a history of infertility and/or abortions. […] One month after End of Treatment, a new IVF cycle is ready to be started, and pregnancies are followed up to full term birth. […] Pregnancy rate was measured and is described below in Table 6: […]

The nature of data set [2]: Safety and tolerability of the treatment regimen (safety lab blood tests, adverse events). It counts as in vivo, women. As to the method:
(§1) Intralesional application must start with the lesions located closest to the cavum uteri, in the so-called junctional zone, because these have the strongest influence on fertility. The procedure is performed under short-term intravenous anesthesia to ensure patient comfort and immobility during application; patients report no pain after anesthesia wear off.
The safety lab panel included liver function tests (AST, ALT, LDH), as well as complete blood count.

Another data set deals with adenomyosis lesions. In words: Clinical treatment of women with adenomyosis: lesion assessment by 2D/3D ultrasound, MRI and colour Doppler. It counts as in vivo. The method, then: A 100 mg/ml solution of sodium valproate for injection or infusion was prepared.
This solution is drawn in 5 ml Luer lock syringe and administrated in the lesion(s) through special needle. We have used—OPU needle 18G, with echo tip and length at least 15 cm. The solution was administered in the ultrasound-guided manner in all visible lesions. The access was through the vagina.
as §1
The first oral dose must be taken between 9 h and 16 h after the end of intralesion application in order to achieve a steady state in patient plasma.
Sodium valproate 500 mg prolonged-release tablets were used.
To eliminate operator bias, all TVUS scans of the same patient at baseline and after start of treatment were performed by the same specialist on the same ultrasound machine.
There were tested 37 women with adenomyosis and a history of infertility and/or abortions.

Where [3] appears, read: after the first two months of oral VPA following intralesional VPA administration.

Turning to `CCCC(CCC)C(=O)O` [VPA, valproic acid], the “Observed Prop. (Binomial Test, Pregnancy CODE 1.00)” value in data set [1] (Group 2, N 13 of 37, Test Prop. .8, Exact Sig. (1-tailed) .023) is “.4”. Further, the “pregnancy terminations, or uterine obstetric complications during C-Section” value in data set [1] (in vivo) is “No pregnancy terminations, or uterine obstetric complications during C-Section”. Besides, the pregnancy rate in data set [1] (new IVF cycle one month after End of Treatment, results up to date) was 85%. Further, the healthy full-term babies in data set [1] (results up to date) is recorded as 10. In addition, in data set [2] (1000 mg VPA daily oral), the “patients who reported dizziness and stopped oral VPA intake” value is given as 2. In addition, the “pain after intralesional application” value in data set [2] (after anesthesia wear off) was “no pain”. For the same compound, the “safety lab results (AST, ALT, LDH, complete blood count)” value in data set [2] (before start and every 30 days till end of treatment) was “in normal range”. In the data set with adenomyosis lesions (37 women with adenomyosis and a history of infertility and/or abortions), the “response of lesions to treatment” value is “Some of the lesions disappeared completely and some of them were significantly reduced in size”. Besides, in the data set on adenomyosis lesions (setting [3]), the “central vascularity of lesions (Colour Doppler)” value is recorded as “absent” and the “reduction in size of lesion dimensions (ultrasound)” value was “up to 2 fold”. Also, the progression of adenomyosis entry in the data set on adenomyosis lesions (monthly follow-up for three months after end of treatment) is listed as “no progression of adenomyosis was observed”.
